{"source": "patent US20230414701A1", "about": "“COMPOSITION FOR PREVENTING, AMELIORATING, OR TREATING COGNITIVE DYSFUNCTION DISEASE, COMPRISING PEPTIDE HAVING SYNAPTIC PLASTICITY CONTROL FUNCTION” (UIF (University Industry Foundation), Yonsei University, priority 2020, published 2023)", "key": {"[1]": {"target": "CCNY protein (Homo sapiens, UniProt Q8ND76)", "sequence (Q8ND76 whole entry, species assumed)": "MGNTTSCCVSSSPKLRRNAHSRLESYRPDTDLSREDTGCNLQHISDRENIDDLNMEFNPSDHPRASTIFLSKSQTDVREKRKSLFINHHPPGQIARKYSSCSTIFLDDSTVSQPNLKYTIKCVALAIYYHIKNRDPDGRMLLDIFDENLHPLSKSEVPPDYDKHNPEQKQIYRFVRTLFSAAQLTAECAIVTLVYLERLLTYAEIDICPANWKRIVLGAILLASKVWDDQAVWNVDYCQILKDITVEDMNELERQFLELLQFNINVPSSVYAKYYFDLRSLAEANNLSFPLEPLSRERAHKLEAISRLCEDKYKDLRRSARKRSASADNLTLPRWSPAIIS", "assay": "ELISA of binding capacity of peptides to CCNY", "details": "treated at 10, 100 or 1000 μg/mL; CCNY immobilized on plate; FIG. 5", "method": "To examine which of MIC-1 and cyclo MIC-1 according to the present invention easily binds to CCNY, the present inventors conducted an experiment using ELISA. To this end, CCNY was immobilized on a plate, MIC-1 and cyclo MIC-1 were treated at 10, 100 or 1000μg/mL, biotin was bound to the MIC-1 and cyclo MIC-1, and then the optical density of HRP was measured after treating streptavidin-HRP."}, "[2]": {"system": "PSD-95 protein", "assay": "Western blotting of PSD-95 protein expression in Aβ42-treated cells", "assay_type": "cell-based", "details": "FIG. 7", "method": "To identify what role MIC-1 plays in improving the cognitive function of MIC-1 according to the present invention, the present inventors, as shown in Example 5, an experiment was performed as follows. Specifically, the change in expression level of the PSD-95 protein known to play an important role in cognitive function was analyzed through Western blotting using a 12% acrylamide gel. For example, it is known that, when cells are treated with Aβ42, compared to normal cells, the amount of PSD-95 protein decreases and cognitive function decreases, resulting in deterioration of memory."}, "[3]": {"system": "ICR mouse models", "assay": "Y-maze behavioral experiment, scopolamine-induced memory loss", "assay_type": "in vivo", "details": "20 mpK intravenous twice for one week, then scopolamine 1 mpK i.p. 30 minutes before test; 7-week-old male ICR mice; FIG. 8", "method": "In Example 6-1, it was confirmed that MIC-1 can enhance the expression level of the PSD-95 protein known to be associated with cognitive function, and based on this, a behavioral experiment for mouse models was designed. Specifically, among ICR mouse models, 7-week-old male mouse models were used and divided into a control and two experimental groups (scopolamine-treated group and group administered MIC-1 and then treated with scopolamine) to perform the experiment.\nMIC-1 was administered into a mouse twice via intravenous administration at 20 mpK for one week. […] Therefore, to induce such memory loss, 30 minutes before the Y-maze behavioral experiment, scopolamine was intraperitoneally administered at 1 mpK to the experimental groups, resulting in memory deterioration."}, "[4]": {"system": "hippocampal tissue section from APP/PS1 Alzheimer's disease animal model", "assay": "fEPSP amplitude (long-term potentiation) in hippocampal tissue sections", "design": "species or system mouse", "details": "1 μM, 1 hour and 40 minutes, compared to control peptide material; FIG. 6", "method": "Specifically, the brain was extracted from an APP/PS1 Alzheimer's disease animal model, and then transferred to a 4° C. sucrose-artificial cerebrospinal fluid solution (195.5 sucrose, 2.5 KC1, 1 NaH2PO4, 32.5 NaHCO3, 11 glucose, 2 NaPyruvate, 1 NaL-ascorbate, 5 MgSO4, 0.5 CaCl2 (95% O2/5% CO2). Subsequently, brain tissue was cut into coronal sections (400 μm) using a microtome, a hippocampal tissue section was transferred to a 35° C. artificial cerebrospinal fluid solution (128.5 NaCl2, 2.5 KCl, 1 NaH2PO4, 21.7 NaHCO3, 11 glucose, 2 NaPyruvate, 1 NaL-ascorbate, 5 MgSO4, 1 CaCl2 (95% O2/5% CO2)) and incubated for 30 minutes to restore the function of the tissue. Subsequently, an experiment was performed for 1 hour and 40 minutes while flowing MIC-1 according to the present invention at a concentration of 1 μM from the beginning until the end of the experiment using gravity, and then the amplitude of field excitatory postsynaptic potential (fEPSP) was measured."}}, "data": [{"substance": "MIC-1: Peptide of SEQ ID NO: 1 (PFTAIRE sequence of Cdk14) in which both termini are modified (Ac-PFTAIRE-NH2)", "values": [{"measurement": "binding to the CCNY protein (ELISA, optical density of HRP)", "setting": "[1]", "result": "can remarkably bind to the CCNY protein"}, {"measurement": "level of the PSD-95 protein", "setting": "[2]", "result": "the level of the PSD-95 protein is increased"}, {"measurement": "alternation (memory) in Y-maze", "setting": "[3]", "result": "the memory is improved up to the control level"}, {"measurement": "fEPSP amplitude", "setting": "[4]", "result": "the fEPSP amplitude increases"}]}]}
